# How the values were obtained:
# Details in all cases: 72 h
# [1] = test system: U2OS; assay: relative viability EC50 (midpoint between 100% and the lowest measured viability); higher = less toxic
# [2] = test system: Calu-3; assay: as above
# [3] = test system: Vero E6; assay: as above
# [4] = test system: Caco-2; assay: as above
# [5] = test system: U2OS; assay: drug sensitivity score (DSS) for viability; higher = more toxic; extreme values may be limits of the assay
# [6] = test system: Calu-3; assay: as above
# [7] = test system: Vero E6; assay: as above
# [8] = test system: Caco-2; assay: as above
# [9] = test system: U2OS; assay: cell viability relative to DMSO; higher = less toxic
# [10] = test system: Calu-3; assay: as above
# [11] = test system: Vero E6; assay: as above
# [12] = test system: Caco-2; assay: as above
# [13] = test system: HepG2; assay: relative viability EC50 (midpoint between 100% and the lowest measured viability); higher = less toxic
# [14] = test system: HepG2; assay: drug sensitivity score (DSS) for viability; higher = more toxic; extreme values may be limits of the assay
# [15] = test system: HepG2; assay: cell viability relative to DMSO; higher = less toxic
SMILES,relative viability EC50 [1] [µM],relative viability EC50 [2] [µM],relative viability EC50 [3] [µM],relative viability EC50 [4] [µM],drug sensitivity score [5],drug sensitivity score [6],drug sensitivity score [7],drug sensitivity score [8],cell viability ([9]; 1 nM) [%],cell viability ([9]; 10 nM) [%],cell viability ([9]; 100 nM) [%],cell viability ([9]; 1000 nM) [%],cell viability ([9]; 10000 nM) [%],cell viability ([10]; 1 nM) [%],cell viability ([10]; 10 nM) [%],cell viability ([10]; 100 nM) [%],cell viability ([10]; 1000 nM) [%],cell viability ([10]; 10000 nM) [%],cell viability ([11]; 1 nM) [%],cell viability ([11]; 10 nM) [%],cell viability ([11]; 100 nM) [%],cell viability ([11]; 1000 nM) [%],cell viability ([11]; 10000 nM) [%],cell viability ([12]; 1 nM) [%],cell viability ([12]; 10 nM) [%],cell viability ([12]; 100 nM) [%],cell viability ([12]; 1000 nM) [%],cell viability ([12]; 10000 nM) [%],relative viability EC50 [13] [µM],drug sensitivity score [14],cell viability ([15]; 1 nM) [%],cell viability ([15]; 10 nM) [%],cell viability ([15]; 100 nM) [%],cell viability ([15]; 1000 nM) [%],cell viability ([15]; 10000 nM) [%]
C[C@]12C[C@H](O)[C@H]3[C@@H](CCC4=CC(=O)CC[C@@]43C)[C@@H]1CC[C@@H]2C(=O)CO [corticosterone],> 10,> 10,> 10,> 10,0,0,0,0,94.9,100,92.3,96.1,97.9,101,101,96.4,97.2,93.7,96.1,91.6,101,90.6,87.8,92.8,114,114,101,91.5,–,–,–,–,–,–,–
NCCS [cysteamine],> 10,> 10,> 10,> 10,0,0,0,0,102,102,95.1,99.7,97.4,87.7,100,98.3,99.1,102,106,101,99.8,94.8,99.9,102,108,104,100,93.8,–,–,–,–,–,–,–
CN(C)NC(=O)CCC(=O)O [daminozide],> 10,–,> 10,> 10,0,–,0,0,97.8,97.8,95,101,101,–,–,–,–,–,94.6,98.2,97.1,98.3,103,93.5,96.3,96.5,98.3,100,> 10,0,103,96.4,102,102,103
CC[C@@](C)(Nc1ccnc(-c2c[nH]c3ncccc23)n1)C(=O)NCC(F)(F)F [decernotinib],> 10,–,> 10,> 10,0,–,0,0,96.5,101,94.2,98.3,98,–,–,–,–,–,100,100,105,99.1,107,97.4,97.3,99,95.4,109,> 10,0,94.2,101,96.6,107,109
O=C(O)c1ccc(-n2nc(-c3ccccc3O)nc2-c2ccccc2O)cc1 [deferasirox],2.16,–,–,–,3.9,0.9,2.1,2.7,103,102,99,93.5,47.1,99.7,100,97.4,104,72.2,104,104,106,101,56.9,110,92.5,104,96,58.8,2.17,5.2,110,93.2,106,91.6,31.3
Nc1ncnc2c1ncn2[C@H]1CC[C@@H](CO)O1 [dideoxyadenosine],> 10,> 10,> 10,> 10,0,0,0,0,96.3,100,93.7,99.3,102,98.8,95.4,89.1,107,108,101,98,99.3,106,102,98.6,95.3,94.6,94.6,104,–,–,–,–,–,–,–
Clc1ccc(C(Cn2ccnc2)OCc2ccc(Sc3ccccc3)cc2)c(Cl)c1 (stereo not given) [fenticonazole],> 10,> 10,> 10,–,0,0.1,0,1.7,101,97.8,100,99.1,96,100,88.6,97,101,85.7,109,108,106,107,97.8,102,94.8,95,91.3,73.3,–,1,116,108,114,110,68.5
CC(C)n1c(/C=C/[C@@H](O)C[C@@H](O)CC(=O)O)c(-c2ccc(F)cc2)c2ccccc21 [fluvastatin],3.24,–,2.05,> 10,2.9,1.3,4.9,1.7,99.6,109,95.7,101,45.1,99,96.7,96.6,105,65.4,100,100,103,91.2,37.5,92.4,103,101,89.1,80,–,2.5,97,104,99.2,90.7,71.3
COc1c2occc2c(OC)c2c(=O)cc(C)oc12 [khellin],> 10,–,> 10,> 10,0,–,0,0,103,98.6,99.5,98.8,96.3,–,–,–,–,–,105,99.8,94.2,99.7,98.5,97.1,110,94.9,107,102,> 10,0.3,96.2,99.2,96.6,89,90.1
COc1cc2nccc(Oc3ccc(NC(=O)NC4CC4)c(Cl)c3)c2cc1C(N)=O [lenvatinib],> 10,–,> 10,> 10,2,2.3,0,1.4,105,101,101,90.8,76.3,115,98.1,89.6,94.7,68.3,102,106,106,99.1,99.6,106,95.5,94.7,91.2,75.6,> 10,0,110,108,105,110,95.4
FC(F)(F)c1ccc(/C=C/c2nc(COc3ccc(CCCCn4ccnn4)cc3)co2)cc1 [mubritinib],> 10,–,> 10,> 10,0,–,0,3.1,100,103,93.7,93.7,97.2,–,–,–,–,–,103,103,100,103,88.4,97.5,109,92.5,81.6,84.9,0.429,10.8,106,104,78.3,56,28.1
Cc1nc2ccccn2c(=O)c1CCN1CCC(C(=O)c2ccc(F)cc2)CC1 [pirenperone],> 10,–,> 10,> 10,0,–,0,0,106,106,103,99.2,103,–,–,–,–,–,92.6,101,95.6,100,97.2,103,101,99.5,90.6,106,> 10,0,110,113,108,99.2,90.2
CN(C)C(=O)c1cc2cnc(Nc3ccc(N4CCNCC4)cn3)nc2n1C1CCCC1 [ribociclib],> 10,–,> 10,> 10,0,1.8,0.6,0,92.8,96.9,92.7,98.4,90.4,99.7,90.3,94,95.3,73.1,95.5,98.8,98,94.4,84,92.1,95.9,96.1,95,90.3,–,4.5,95.1,101,87.5,78,71.8
C=C[C@](C)(O)CC[C@@H]1[C@@]2(C)CCCC(C)(C)[C@@H]2CC[C@@]1(C)O [sclareol],> 10,> 10,> 10,> 10,0,0,0,0,107,96.6,96.4,98.8,94.6,101,98.7,98.7,104,94.4,101,100,102,99.6,104,101,98.8,99.7,102,87.6,–,–,–,–,–,–,–
Cc1cn([C@@H]2C[C@@H](O)[C@H](CO)O2)c(=O)[nH]c1=O [telbivudine],> 10,> 10,> 10,> 10,0,0,0,0,97.8,103,96.8,99.1,105,118,92.2,105,107,114,98.8,97.6,92.3,85,99.3,92.6,108,99.8,106,116,–,–,–,–,–,–,–

# From the supplement of paper PMC13380429
